The numbers were not newly measured in patent US20200030253A1, “Methods and compositions for treatment of body conditions” (priority 2018, published 2020), which cites them from elsewhere.

Structures are written as SMILES.

The conditions of this series: octanol-water.

For the compound `C=C(C)[C@@H]1CCC(C)=C[C@H]1c1c(O)cc(CCCCC)cc1O` [Cannabidiol], the “Koctanol-water (lipophilicity)” value was 6-7.
